{"source": "the supplement of paper PMC10307832", "assay_in_all_cases": "relative viability (nuclei count vs DMSO), 5 days (fraction); higher = more cells survive", "key": {"EKVX": {"test_system": "EKVX", "in_short": "(§1)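 Nuclei were stained with Hoechst during a one-step fixation (final 0.05% Triton X-100, 1% formaldehyde, 1 ug/ml Hoechst) carried out 5 days after dosing, then counted on 4× images. The cells, lung cancer lines in 1536-well plates, had been dosed by pin tool the day after seeding with one drug alone or a fixed anchor-drug dose plus five library-drug doses (not always all listed) in √10 steps. Relative viability is the nuclei count in treated wells divided by that in vehicle wells, and each value is the median of duplicate plates.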"}, "A549": {"test_system": "A549", "in_short": "as §1"}, "HCC-44": {"test_system": "HCC-44", "in_short": "as §1"}, "NCI-H1648": {"test_system": "NCI-H1648", "in_short": "as §1"}, "NCI-H2085": {"test_system": "NCI-H2085", "in_short": "as §1"}, "NCI-H1993": {"test_system": "NCI-H1993", "in_short": "as §1"}, "RERF-LC-KJ": {"test_system": "RERF-LC-KJ", "in_short": "as §1"}, "NCI-H2126": {"test_system": "NCI-H2126", "in_short": "as §1"}, "ABC-1": {"test_system": "ABC-1", "in_short": "as §1"}}, "data": [{"smiles": "CCN(CC)CCCCNc1ncc2cc(-c3cc(OC)cc(OC)c3)c(NC(=O)NC(C)(C)C)nc2n1", "note": "+ Nc1ncn([C@H]2C[C@H](O)[C@@H](CO)O2)c(=O)n1 [Decitabine] (partner 2 µM)", "values": [{"measurement": "relative viability", "setting": "EKVX; first compound 0.03162 µM", "value": 0.323}, {"measurement": "relative viability", "setting": "EKVX; first compound 0.1 µM", "value": 0.329}, {"measurement": "relative viability", "setting": "EKVX; first compound 0.3162 µM", "value": 0.314}, {"measurement": "relative viability", "setting": "EKVX; first compound 1 µM", "value": 0.295}, {"measurement": "relative viability", "setting": "A549; first compound 0.01 µM", "value": 0.27}, {"measurement": "relative viability", "setting": "A549; first compound 0.03162 µM", "value": 0.27}, {"measurement": "relative viability", "setting": "A549; first compound 0.1 µM", "value": 0.312}, {"measurement": "relative viability", "setting": "A549; first compound 0.3162 µM", "value": 0.212}, {"measurement": "relative viability", "setting": "A549; first compound 1 µM", "value": 0.288}, {"measurement": "relative viability", "setting": "HCC-44; first compound 0.01 µM", "value": 0.944}, {"measurement": "relative viability", "setting": "HCC-44; first compound 0.03162 µM", "value": 0.915}, {"measurement": "relative viability", "setting": "HCC-44; first compound 0.1 µM", "value": 1.02}, {"measurement": "relative viability", "setting": "HCC-44; first compound 0.3162 µM", "value": 0.949}, {"measurement": "relative viability", "setting": "HCC-44; first compound 1 µM", "value": 0.979}, {"measurement": "relative viability", "setting": "NCI-H1648; first compound 0.01 µM", "value": 0.407}, {"measurement": "relative viability", "setting": "NCI-H1648; first compound 0.03162 µM", "value": 0.565}, {"measurement": "relative viability", "setting": "NCI-H1648; first compound 0.1 µM", "value": 0.499}, {"measurement": "relative viability", "setting": "NCI-H1648; first compound 0.3162 µM", "value": 0.417}, {"measurement": "relative viability", "setting": "NCI-H1648; first compound 1 µM", "value": 0.383}, {"measurement": "relative viability", "setting": "NCI-H2085; first compound 0.01 µM", "value": 0.559}, {"measurement": "relative viability", "setting": "NCI-H2085; first compound 0.03162 µM", "value": 0.603}, {"measurement": "relative viability", "setting": "NCI-H2085; first compound 0.1 µM", "value": 0.564}, {"measurement": "relative viability", "setting": "NCI-H2085; first compound 0.3162 µM", "value": 0.533}, {"measurement": "relative viability", "setting": "NCI-H2085; first compound 1 µM", "value": 0.549}, {"measurement": "relative viability", "setting": "NCI-H1993; first compound 0.01 µM", "value": 0.671}, {"measurement": "relative viability", "setting": "NCI-H1993; first compound 0.03162 µM", "value": 0.584}, {"measurement": "relative viability", "setting": "NCI-H1993; first compound 0.1 µM", "value": 0.508}, {"measurement": "relative viability", "setting": "NCI-H1993; first compound 0.3162 µM", "value": 0.757}, {"measurement": "relative viability", "setting": "NCI-H1993; first compound 1 µM", "value": 0.589}, {"measurement": "relative viability", "setting": "RERF-LC-KJ; first compound 0.01 µM", "value": 0.697}, {"measurement": "relative viability", "setting": "RERF-LC-KJ; first compound 0.03162 µM", "value": 0.687}, {"measurement": "relative viability", "setting": "RERF-LC-KJ; first compound 0.1 µM", "value": 0.74}, {"measurement": "relative viability", "setting": "RERF-LC-KJ; first compound 0.3162 µM", "value": 0.717}, {"measurement": "relative viability", "setting": "RERF-LC-KJ; first compound 1 µM", "value": 0.603}, {"measurement": "relative viability", "setting": "NCI-H2126; first compound 0.01 µM", "value": 0.555}, {"measurement": "relative viability", "setting": "NCI-H2126; first compound 0.03162 µM", "value": 0.568}, {"measurement": "relative viability", "setting": "NCI-H2126; first compound 0.1 µM", "value": 0.556}, {"measurement": "relative viability", "setting": "NCI-H2126; first compound 0.3162 µM", "value": 0.603}, {"measurement": "relative viability", "setting": "NCI-H2126; first compound 1 µM", "value": 0.63}, {"measurement": "relative viability", "setting": "ABC-1; first compound 0.03162 µM", "value": 1.17}, {"measurement": "relative viability", "setting": "ABC-1; first compound 0.1 µM", "value": 1.32}, {"measurement": "relative viability", "setting": "ABC-1; first compound 0.3162 µM", "value": 1.06}, {"measurement": "relative viability", "setting": "ABC-1; first compound 1 µM", "value": 1.05}]}, {"smiles": "O=c1cc(-c2cccc3c2Sc2ccccc2S3)oc(N2CCOCC2)c1", "note": "+ Nc1ncn([C@H]2C[C@H](O)[C@@H](CO)O2)c(=O)n1 [Decitabine] (partner 2 µM)", "values": [{"measurement": "relative viability", "setting": "EKVX; first compound 0.08 µM", "value": 0.431}, {"measurement": "relative viability", "setting": "EKVX; first compound 0.253 µM", "value": 0.34}, {"measurement": "relative viability", "setting": "EKVX; first compound 0.8 µM", "value": 0.371}, {"measurement": "relative viability", "setting": "EKVX; first compound 2.53 µM", "value": 0.37}, {"measurement": "relative viability", "setting": "EKVX; first compound 8 µM", "value": 0.349}, {"measurement": "relative viability", "setting": "A549; first compound 0.08 µM", "value": 0.259}, {"measurement": "relative viability", "setting": "A549; first compound 0.253 µM", "value": 0.325}, {"measurement": "relative viability", "setting": "A549; first compound 0.8 µM", "value": 0.263}, {"measurement": "relative viability", "setting": "A549; first compound 2.53 µM", "value": 0.106}, {"measurement": "relative viability", "setting": "A549; first compound 8 µM", "value": 0.334}, {"measurement": "relative viability", "setting": "HCC-44; first compound 0.08 µM", "value": 0.93}, {"measurement": "relative viability", "setting": "HCC-44; first compound 0.253 µM", "value": 1.02}, {"measurement": "relative viability", "setting": "HCC-44; first compound 0.8 µM", "value": 0.968}, {"measurement": "relative viability", "setting": "HCC-44; first compound 2.53 µM", "value": 0.88}, {"measurement": "relative viability", "setting": "HCC-44; first compound 8 µM", "value": 0.965}, {"measurement": "relative viability", "setting": "NCI-H1648; first compound 0.253 µM", "value": 0.501}, {"measurement": "relative viability", "setting": "NCI-H1648; first compound 0.8 µM", "value": 0.553}, {"measurement": "relative viability", "setting": "NCI-H1648; first compound 8 µM", "value": 0.54}, {"measurement": "relative viability", "setting": "NCI-H2085; first compound 0.08 µM", "value": 0.532}, {"measurement": "relative viability", "setting": "NCI-H2085; first compound 0.253 µM", "value": 0.578}, {"measurement": "relative viability", "setting": "NCI-H2085; first compound 0.8 µM", "value": 0.52}, {"measurement": "relative viability", "setting": "NCI-H2085; first compound 2.53 µM", "value": 0.519}, {"measurement": "relative viability", "setting": "NCI-H2085; first compound 8 µM", "value": 0.537}, {"measurement": "relative viability", "setting": "NCI-H1993; first compound 0.08 µM", "value": 0.593}, {"measurement": "relative viability", "setting": "NCI-H1993; first compound 0.253 µM", "value": 0.61}, {"measurement": "relative viability", "setting": "NCI-H1993; first compound 0.8 µM", "value": 0.467}, {"measurement": "relative viability", "setting": "NCI-H1993; first compound 2.53 µM", "value": 0.586}, {"measurement": "relative viability", "setting": "NCI-H1993; first compound 8 µM", "value": 0.577}, {"measurement": "relative viability", "setting": "RERF-LC-KJ; first compound 0.08 µM", "value": 0.643}, {"measurement": "relative viability", "setting": "RERF-LC-KJ; first compound 0.253 µM", "value": 0.818}, {"measurement": "relative viability", "setting": "RERF-LC-KJ; first compound 0.8 µM", "value": 0.709}, {"measurement": "relative viability", "setting": "RERF-LC-KJ; first compound 2.53 µM", "value": 0.655}, {"measurement": "relative viability", "setting": "RERF-LC-KJ; first compound 8 µM", "value": 0.676}, {"measurement": "relative viability", "setting": "NCI-H2126; first compound 0.08 µM", "value": 0.583}, {"measurement": "relative viability", "setting": "NCI-H2126; first compound 0.253 µM", "value": 0.581}, {"measurement": "relative viability", "setting": "NCI-H2126; first compound 0.8 µM", "value": 0.612}, {"measurement": "relative viability", "setting": "NCI-H2126; first compound 2.53 µM", "value": 0.534}, {"measurement": "relative viability", "setting": "NCI-H2126; first compound 8 µM", "value": 0.54}, {"measurement": "relative viability", "setting": "ABC-1; first compound 0.08 µM", "value": 0.993}, {"measurement": "relative viability", "setting": "ABC-1; first compound 0.253 µM", "value": 1.16}, {"measurement": "relative viability", "setting": "ABC-1; first compound 0.8 µM", "value": 1.33}, {"measurement": "relative viability", "setting": "ABC-1; first compound 2.53 µM", "value": 1.17}, {"measurement": "relative viability", "setting": "ABC-1; first compound 8 µM", "value": 1.19}]}]}
